Assay results as given in US20260076982A1, “Prodrugs of Cannbidiol [CBD]-Type Phytocannabinoids and a Process for Preparation Thereof” (priority 2022, published 2026).

Tests used:
[1] = Ex vivo human plasma stability / release kinetic study of CBD prodrugs; assay type: in vitro ADME; settings: human blood plasma with citrate buffer; for prodrug left after 24 h / concentration of cannabidiol (B1) released from prodrug after 24 h / concentration of cannabidiol (B1) at start of release: 37° C.; for stability / conversion of prodrug in plasma: over 24 h; for concentration of cannabidiol (B1) released from prodrug after 24 h: HPLC; for concentration of cannabidiol (B1) at start of release: initial value of the release range
Experimental: For the preparation of citrate buffer solution (pH=7.6), 100 ml of HPLC water, 0.25 M sucrose and 40 mM sodium citrate were taken.
To construct a calibration curve, […] different concentration such as 0.78, 1.56, 3.12, 6.25, 12.5, 25, 50 mg/ml of CBD based prodrugs and the parent cannabidiol were prepared. All sample were analyzed by 4.6×250 mm, 5 μm end capped RP-C18 column and the mobile phase containing buffer (0.1% formic acid in water and 0.1% formic acid in acetonitrile) and in some case methanol were used at the flow rate of 1 mL/min at column temperature of 25° C. at 210 nm, 190 nm, 254 nm wavelength range. A volume of 10 μL was injected and a total run time of the assay range was between 15-40 mins. The markers were estimated by HPLC using gradient technique.
For the preparation of plasma sample, fresh 20 ml of human blood was taken to which 2 ml of citrate buffer was added and then vortex it for about 5 minutes. Immediately after this, the mixture was centrifuged at 8000 rpm for 20 minutes, resulting in the separation of two-layer like RBC and plasma (ethical approval number 1EC/GMC/Cat A/2020/267).
To check the stability of prodrugs in plasma, stock solution of prodrug in DMSO (5 mg/2 ml) was prepared and placed at −20° C. The plasma sample of 50 μl was taken in different eppendorf's followed by the addition of 5 μl prodrug solution, vertex for 2 min., incubated at 37° C. at the different time point (Schedule provided in Table 1). After 24 h, all the sample were added with 200 μl MeOH with the help of vertex for about 2 minutes followed by centrifuge for about 10 minutes with 4000 rpm and two layers of sample were separated. The upper layer of methanol sample was taken and immediately the methanol sample was analyzed by 4.6×250 mm, 5 μm end capped RP-C18 column and the mobile phase containing buffer (0.1% formic acid in water and 0.1% formic acid in acetonitrile) and in some case methanol were used at the flow rate of 1 mL/min at column temperature of 25° C. at 210 nm, 190 nm, 254 nm wavelength range. A volume of 10 μL was injected and a total run time of the assay range was 15-40 mins. The markers were estimated by HPLC using gradient technique. The results are depicted in FIG. 1 to FIG. 10.

[2] = published studies; cited from earlier work

Row | Structure (SMILES) | prodrug left after 24 h [1] | concentration of prodrug at the initial time point (Pre-treatment) [1] | stability / conversion of prodrug in plasma [1] | other results
1 | C=C(C)[C@@H]1CCC(C)=C[C@H]1c1c(O)cc(CCCCC)cc1OC(=O)CN1CCOCC1 [Compound A1a, O-(2-morpholinoacetyl) cannabidiol] | 5.5% | 49.1% |  | 
2 | C=C(C)[C@@H]1CCC(C)=C[C@H]1c1c(OC(=O)CN2CCOCC2)cc(CCCCC)cc1OC(=O)CN1CCOCC1 [Compound A1b, O,O-bis-(2-morpholinoacetyl) cannabidiol] |  |  | immediately converted into mono substituted CBD derivative | 
3 | C=C(C)[C@@H]1CCC(C)=C[C@H]1c1c(O)cc(CCCCC)cc1OC(=O)CN1CCC(c2ccccc2)CC1 [Compound A2a, O-{2-(4-phenylpiperidin-1-yl)acetyl} cannabidiol] |  |  | quite stable | 
4 | C=C(C)[C@@H]1CCC(C)=C[C@H]1c1c(O)cc(CCCCC)cc1OC(=O)CN1CCC(O)CC1 [Compound A3a, O-{2-(4-hydroxypiperidin-1-yl)acetyl} cannabidiol] | below detection limit | 49.2% |  | 
5 | C=C(C)[C@@H]1CCC(C)=C[C@H]1c1c(O)cc(CCCCC)cc1OC(=O)CN1CCN(C2CC2)CC1 [Compound A5a, O-{2-(4-cyclopropylpiperazin-1-yl)acetyl} cannabidiol] | 11.1% | 51.4% |  | concentration of cannabidiol (B1) released from prodrug after 24 h [1]: 17.4%; concentration of cannabidiol (B1) at start of release [1]: 0%
6 | C=C(C)[C@@H]1CCC(C)=C[C@H]1c1c(OC(=O)CN2CCN(C3CC3)CC2)cc(CCCCC)cc1OC(=O)CN1CCN(C2CC2)CC1 [Compound A5b, O,O-bis-{2-(4-cyclopropylpiperazin-1-yl)acetyl} cannabidiol] |  |  | immediately converted into mono substituted CBD derivative | time after which release of CBD (B1) started [1]: > 16 h; concentration of cannabidiol (B1) released from prodrug after 24 h [1]: 8.8%
7 | C=C(C)[C@@H]1CCC(C)=C[C@H]1c1c(O)cc(CCCCC)cc1OC(=O)CN1CCN(C(C)C)CC1 [Compound A6a, O-{2-(4-isopropylpiperazin-1-yl)acetyl} cannabidiol] | 11.1% | 51.3% |  | concentration of cannabidiol (B1) released from prodrug after 24 h [1]: 26.8%; concentration of cannabidiol (B1) at start of release [1]: 0.6%
8 | C=C(C)[C@@H]1CCC(C)=C[C@H]1c1c(O)cc(CCCCC)cc1OC(=O)CN1CCN(C)CC1 [Compound A7a, O-{2-(4-methylpiperazin-1-yl)acetyl} cannabidiol] | 0.7% | 49.6% |  | 
9 | C=C(C)[C@@H]1CCC(C)=C[C@H]1c1c(O)cc(CCCCC)cc1OC(=O)CN1CCN(c2ccccc2)CC1 [Compound A8a, O-{2-(4-phenylpiperazin-1-yl)acetyl} cannabidiol] |  |  | quite stable | 
10 | C=C(C)[C@@H]1CCC(C)=C[C@H]1c1c(O)cc(CCCCC)cc1OC(=O)CN1CCCC1 [Compound A10a, O-{2-(pyrrolidin-1-yl)acetyl} cannabidiol] | 1.9% | 51.3% |  | 
11 | C=C(C)[C@@H]1CCC(C)=C[C@H]1c1c(O)cc(CCCCC)cc1O [Compound B1, cannabidiol] |  |  |  | plasma protein binding [2]: > 94%
